Results taken from PubChem BioAssay (NCI).
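GI50 is the concentration that inhibits growth by half. TGI marks complete inhibition of growth.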

How the values were obtained:
Test in all cases: growth of human tumour cells (NCI), 384-well format
[1] = test system: BT-549 breast
[2] = test system: KM12 colon
[3] = test system: A498 renal
[4] = test system: COLO 205 colon
[5] = test system: HOP-62 NSCLC
[6] = test system: NCI/ADR-RES ovarian
[7] = test system: SN12C renal
[8] = test system: MCF7 breast
[9] = test system: NCI-H226 lung
[10] = test system: SF-295 CNS
[11] = test system: MOLT-4 leukemia
[12] = test system: OVCAR-5 ovarian
[13] = test system: SNB-19 CNS
[14] = test system: PC-3 prostate
[15] = test system: NCI-H322M lung
[16] = test system: RPMI-8226 leukemia
[17] = test system: CCRF-CEM leukemia
[18] = test system: OVCAR-4 ovarian
[19] = test system: NCI-H522 lung
[20] = test system: NCI-H23 lung
[21] = test system: RXF 393 renal
[22] = test system: NCI-H460 NSCLC
[23] = test system: SK-MEL-28 melanoma
[24] = test system: ACHN renal
[25] = test system: SR leukemia
[26] = test system: SF-539 CNS
[27] = test system: SK-OV-3 ovarian
[28] = test system: OVCAR-8 ovarian
[29] = test system: DU-145 prostate
[30] = test system: HL-60(TB) leukemia
[31] = test system: K-562 leukemia
[32] = test system: MALME-3M melanoma
[33] = test system: UACC-62 melanoma
[34] = test system: SK-MEL-2 melanoma
[35] = test system: MDA-MB-231 breast
[36] = test system: MDA-MB-435 melanoma
[37] = test system: HCT-15 colon
[38] = test system: HCC-2998 colon
[39] = test system: M14 melanoma
[40] = test system: MDA-MB-468 breast
[41] = test system: SK-MEL-5 melanoma
[42] = test system: SF-268 CNS
[43] = test system: U251 glioblastoma
[44] = test system: UO-31 renal
[45] = test system: T-47D breast
[46] = test system: HOP-92 NSCLC
[47] = test system: CAKI-1 renal
[48] = test system: OVCAR-3 ovarian
[49] = test system: HCT-116 colon
[50] = test system: SW-620 colon
[51] = test system: TK-10 renal
[52] = test system: HT29 colon
[53] = test system: UACC-257 melanoma
[54] = test system: IGROV1 ovarian
[55] = test system: A549 NSCLC
[56] = test system: 786-0 renal
[57] = test system: LOX IMVI melanoma

Nc1ccc(/C=C/C(=O)NCc2cc3cc(-c4ccc(C(=O)N5CCC(F)(F)CC5)cc4)cc(-c4ccc(F)cc4)c3o2)cn1
GI50 [1]: 211 nM
TGI [1]: 461 nM
GI50 [2]: 58.6 nM
TGI [2]: 210 nM
GI50 [3]: 2270 nM
TGI [3]: 33400 nM
GI50 [4]: 22.7 nM
TGI [4]: 53.4 nM
GI50 [5]: 65.6 nM
TGI [5]: 242 nM
GI50 [6]: 307 nM
TGI [6]: 1140 nM
GI50 [7]: 17.6 nM
TGI [7]: 32 nM
GI50 [8]: 213 nM
TGI [8]: 485 nM
GI50 [9]: 7380 nM
TGI [9]: > 100000 nM
GI50 [10]: 188 nM
TGI [10]: 368 nM
GI50 [11]: 21.9 nM
TGI [11]: 39.2 nM
GI50 [12]: 21.5 nM
TGI [12]: 44 nM
GI50 [13]: 28 nM
TGI [13]: 82 nM
GI50 [14]: 48.1 nM
TGI [14]: 165 nM
GI50 [15]: 34.7 nM
TGI [15]: 139 nM
GI50 [16]: 58.7 nM
TGI [16]: 191 nM
GI50 [17]: 21.4 nM
TGI [17]: 37.2 nM
GI50 [18]: 212 nM
TGI [18]: 472 nM
GI50 [19]: 18.1 nM
TGI [19]: 34.8 nM
GI50 [20]: 218 nM
TGI [20]: 430 nM
GI50 [21]: 105 nM
TGI [21]: 255 nM
GI50 [22]: 437 nM
TGI [22]: 1570 nM
GI50 [23]: 223 nM
TGI [23]: 410 nM
GI50 [24]: 121 nM
TGI [24]: 348 nM
GI50 [25]: 1330 nM
TGI [25]: 2690 nM
GI50 [26]: 15.5 nM
TGI [26]: 30.3 nM
GI50 [27]: 20.9 nM
TGI [27]: 49.1 nM
GI50 [28]: 16.8 nM
TGI [28]: 32.8 nM
GI50 [29]: 259 nM
TGI [29]: 641 nM
GI50 [30]: 22.8 nM
TGI [30]: 37.6 nM
GI50 [31]: 33.3 nM
TGI [31]: 175 nM
GI50 [32]: 374 nM
TGI [32]: 916 nM
GI50 [33]: 206 nM
TGI [33]: 427 nM
GI50 [34]: 41.4 nM
TGI [34]: 108 nM
GI50 [35]: 549 nM
TGI [35]: 1950 nM
GI50 [36]: 146 nM
TGI [36]: 283 nM
GI50 [37]: 250 nM
TGI [37]: 741 nM
GI50 [38]: 114 nM
TGI [38]: 270 nM
GI50 [39]: 328 nM
TGI [39]: 1390 nM
GI50 [40]: 190 nM
TGI [40]: 384 nM
GI50 [41]: 174 nM
TGI [41]: 360 nM
GI50 [42]: 175 nM
TGI [42]: 325 nM
GI50 [43]: 35.6 nM
TGI [43]: 148 nM
GI50 [44]: 52.3 nM
TGI [44]: 174 nM
GI50 [45]: 20.1 nM
TGI [45]: 50.6 nM
GI50 [46]: 441 nM
TGI [46]: 1830 nM
GI50 [47]: 120 nM
TGI [47]: 282 nM
GI50 [48]: 53.9 nM
TGI [48]: 217 nM
GI50 [49]: 20.6 nM
TGI [49]: 40.7 nM
GI50 [50]: 23.9 nM
TGI [50]: 53.4 nM
GI50 [51]: 210 nM
TGI [51]: 404 nM
GI50 [52]: 331 nM
TGI [52]: 985 nM
GI50 [53]: 504 nM
TGI [53]: 2910 nM
GI50 [54]: 131 nM
TGI [54]: 265 nM
GI50 [55]: 252 nM
TGI [55]: 699 nM
GI50 [56]: 117 nM
TGI [56]: 249 nM
GI50 [57]: 567 nM
TGI [57]: 2020 nM
